Measured values as given in patent publication US20080269266A1, “NOVEL COMPOUNDS 747” (ASTRAZENECA AB, priority 2007, published 2008).

Tests used:
[1] = molecular target: T1, human cytochrome P450 (CYP) 2C19 (Homo sapiens, UniProt P33261); test: Cytochrome P450 Inhibition Assay 2C19; assay type: in vitro ADME; conditions: read-out: IC50 range, CYP 2C19
T1 construct: made in house; host or cells: yeast cell lines (microsomal fractions)
Procedure: The inhibitory potential (IC50) of test compounds against 5 human cytochrome P450 (CYP) isoforms (1A2, 2C9, 2C19, 3A4 and 2D6) was assessed using an automated fluorescent end point in vitro assay modified from Crespi (Crespi and Stresser, 2000). Microsomal subcellular fractions prepared from Yeast cell lines expressing each human CYP isoform were used as an enzyme source in this assay. The activity of the 5 major human CYPs was determined from the biotransformation of a number of coumarin substrates to fluorescent metabolites, in the presence of NADPH. […] Stock solutions of each CYP, with its respective substrate, were prepared in phosphate buffer pH7.4 (see Table 1) and 178 μl was added to the well of a black solid, flat bottom, 300 μl 96 well is microtitre plate (Corning Costar). […] After pre-incubating at 37° C. for 5 min the reactions were started with addition of NADPH (20 μl, concentration shown in Table 1). The final solvent content in each incubation was <=2% (1% from the test compound and a maximum of 1% from the substrate). The appropriate solvent controls and substrate blanks were included in each experiment to assess control activity and identify any inherent fluorescence due to the test compounds. In addition, known inhibitors of each CYP were included as positive controls (see Table 3 for inhibitor concentrations and expected IC50 ranges). The reactions were stopped at defined timepoints (see Table 1) by quenching with 100 μl of solvent (acetonitrile:0.5M Tris buffer 80:20 v/v). The plates were read on a fluorimeter (Spectrafluor Plus) at the appropriate excitation and emission wavelengths (listed in Table 2) and the percent activity, corrected for control, was plotted against the test compound concentration.

[2] = Solubility in 0.1 M phosphate buffer pH 7.4; assay type: physicochemical; conditions: pH 7.4, 24 h, 25° C.
Procedure: Solubility values are determined by agitation of compounds in 0.1 M phosphate buffer at pH 7.4 for 24 h at 25° C. The supernatant is separated from undissolved material by double centrifugation and subsequently analyzed and quantified against a standard of known concentration in DMSO using generic HPLC-UV methodology coupled with mass spectral peak identification (J. Med. Chem., 2006, 49(23), 6672-6682).

T1 sequence (P33261 whole entry): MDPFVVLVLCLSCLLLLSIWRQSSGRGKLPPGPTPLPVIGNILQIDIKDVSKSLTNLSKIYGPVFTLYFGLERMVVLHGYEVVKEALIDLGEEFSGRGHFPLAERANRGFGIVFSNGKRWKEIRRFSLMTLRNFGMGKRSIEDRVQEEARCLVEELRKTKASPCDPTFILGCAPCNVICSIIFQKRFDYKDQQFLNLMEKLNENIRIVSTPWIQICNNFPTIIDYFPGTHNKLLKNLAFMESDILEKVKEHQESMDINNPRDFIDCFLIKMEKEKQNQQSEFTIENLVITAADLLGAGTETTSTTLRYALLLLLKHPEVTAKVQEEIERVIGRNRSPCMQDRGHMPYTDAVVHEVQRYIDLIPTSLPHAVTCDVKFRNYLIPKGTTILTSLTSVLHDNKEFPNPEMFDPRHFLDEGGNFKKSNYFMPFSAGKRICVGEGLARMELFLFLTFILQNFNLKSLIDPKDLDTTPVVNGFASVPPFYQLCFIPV

IC50 [1] [µM] | Solubility [2] | SMILES
1.5 to 4.6 | – | COc1ccc2[nH]c([S+]([O-])Cc3ncc(C)c(OC)c3C)nc2c1 (centres unmarked) [Omeprazole]
– | around 18 μM | COc1cc(Nc2cc(C)n[nH]2)nc(N2CCC[C@H]2c2cc(-c3ncccn3)no2)n1 [mixture of Forms 1 and 3, (S)-6-Methoxy-2-{2-[3-(pyrimid-2-yl)isoxazol-5-yl]pyrrolidin-1-yl}-4-(5-methyl-1H-pyrazol-3-ylamino)pyrimidine]
